Each structure is given as a SMILES string. Inconclusive results and toxic doses are left out.

The assay deals with BDF1 mice, P388 leukemia ip, median survival T/C. Put plainly: NCI In Vivo Anticancer Drug Screen. Data for tumor model P388 Leukemia (intraperitoneal) in B6D2F1 (BDF1) mice. As to conditions: endpoint: median survival time, higher = longer survival. The procedure, abridged:
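Steps: implant the tumour, treat one group with compound and another with vehicle, record survival, then divide treated by control.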

Setting [1] is: dose: 100.0 mg/kg/injection, schedule: Q01DX001 (ip), vehicle: Klucel (hydroxypropylcellulose) (HPC).
[2] abbreviates: dose: 200.0 mg/kg/injection, schedule: Q01DX001 (ip), vehicle: Klucel (hydroxypropylcellulose) (HPC).
The mark [3] stands for this setting: dose: 400.0 mg/kg/injection, schedule: Q01DX001 (ip), vehicle: Klucel (hydroxypropylcellulose) (HPC).
Where [4] appears, read: dose: 50.0 mg/kg/injection, schedule: Q01DX009 (ip), vehicle: water.
[5] abbreviates: dose: 100.0 mg/kg/injection, schedule: Q01DX009 (ip), vehicle: water.

`COc1ccc(C=O)c(Cl)c1OC`: the T/C was 90 % of control (dose: 12.0 mg/kg/injection, schedule: Q04DX003 (ip), vehicle: Klucel (hydroxypropylcellulose) (HPC)); 100 % of control (dose: 25.0 mg/kg/injection, schedule: Q04DX003 (ip), vehicle: Klucel (hydroxypropylcellulose) (HPC)); 95 % of control (dose: 50.0 mg/kg/injection, schedule: Q04DX003 (ip), vehicle: Klucel (hydroxypropylcellulose) (HPC)); 113 % of control under setting [1]; 109 % of control (dose: 100.0 mg/kg/injection, schedule: Q04DX003 (ip), vehicle: Klucel (hydroxypropylcellulose) (HPC)); 109 % of control under setting [2]. For the same compound, the T/C was 104 % of control (dose: 200.0 mg/kg/injection, schedule: Q04DX003 (ip), vehicle: Klucel (hydroxypropylcellulose) (HPC)) and 113 % of control under setting [3].
Turning to `CCC(=O)c1cc(OC)cc(OC)c1`, the T/C (dose: 100.0 mg/kg/injection, schedule: Q04DX003 (ip), vehicle: saline) is 115 % of control; the T/C (dose: 200.0 mg/kg/injection, schedule: Q04DX003 (ip), vehicle: saline) is 120 % of control; the T/C (dose: 400.0 mg/kg/injection, schedule: Q04DX003 (ip), vehicle: saline) was 120 % of control.
Consider `Cc1ccc2ccccc2c1Cc1c(C=O)[nH]c(=S)[nH]c1=O`, for which the T/C reads like this: (dose: 100.0 mg/kg/injection, schedule: Q04DX003 (ip), vehicle: saline with Tween-80) 104 % of control; (dose: 200.0 mg/kg/injection, schedule: Q04DX003 (ip), vehicle: saline with Tween-80) 122 % of control.
Turning to `CCC[CH2][Sn](=[S])[CH2]CCC`, the T/C (dose: 0.59 mg/kg/injection, schedule: Q01DX009 (ip), vehicle: other) was 111 % of control; the T/C (dose: 1.33 mg/kg/injection, schedule: Q01DX009 (ip), vehicle: other) is 115 % of control; the T/C (dose: 1.56 mg/kg/injection, schedule: Q04DX003 (ip), vehicle: other) is 109 % of control; the T/C (dose: 2.66 mg/kg/injection, schedule: Q04DX003 (ip), vehicle: other) was 109 % of control; the T/C (dose: 3.13 mg/kg/injection, schedule: Q04DX003 (ip), vehicle: other) is 116 % of control; the T/C (dose: 6.25 mg/kg/injection, schedule: Q04DX003 (ip), vehicle: other) is 156 % of control. Where the note is “dose: 200.0 mg/kg/injection, schedule: Q01DX010 (ip), vehicle: carboxymethylcellulose (CMC)”, the T/C was 110 % of control.
In the case of `C/C=C/C=N/NC(=S)NC`, the T/C reads like this: (dose: 6.75 mg/kg/injection, schedule: Q01DX009 (ip), vehicle: saline with Tween-80) 109 % of control; (dose: 13.5 mg/kg/injection, schedule: Q01DX009 (ip), vehicle: saline with Tween-80) 91 % of control; (dose: 27.0 mg/kg/injection, schedule: Q01DX009 (ip), vehicle: saline with Tween-80) 86 % of control.
As for `CCOC(=O)/C(C#N)=C\c1cc(=O)c(OC)co1`, the T/C is, setting by setting: under setting [1], 90 % of control; under setting [2], 100 % of control; under setting [3], 100 % of control.
For the compound `CC([NH-])C(=O)O.CC([NH-])C(=O)O.CC([NH-])C(=O)O.[Co+3]` (configuration not stated), the T/C is 103 % of control (dose: 25.0 mg/kg/injection, schedule: Q01DX009 (ip), vehicle: water); 92 % of control under setting [4]; 92 % of control under setting [5]; 116 % of control (dose: 100.0 mg/kg/injection, schedule: Q04DX003 (ip), vehicle: water); 90 % of control (dose: 200.0 mg/kg/injection, schedule: Q04DX003 (ip), vehicle: water).
`Cc1c2cc3c(c1O)C(=O)CC(O3)c1ccc(O)c(c1)-c1ccc(O)c(c1)C(=O)OCC1OC(O2)C(O)C(O)C1O` (configuration not stated): the T/C by setting is: (dose: 0.13 mg/kg/injection, schedule: Q01DX009 (ip), vehicle: Klucel (hydroxypropylcellulose) (HPC)) 109 % of control; (dose: 0.25 mg/kg/injection, schedule: Q01DX009 (ip), vehicle: Klucel (hydroxypropylcellulose) (HPC)) 106 % of control; (dose: 0.5 mg/kg/injection, schedule: Q01DX009 (ip), vehicle: Klucel (hydroxypropylcellulose) (HPC)) 112 % of control; (dose: 1.0 mg/kg/injection, schedule: Q01DX009 (ip), vehicle: Klucel (hydroxypropylcellulose) (HPC)) 112 % of control.
With `CC1OC(OC2C(O)CC(OC3C(O)CC(OC4CCC5(C)C(CCC6C5CCC5(C)C(C7=CC(=O)OC7)CCC65O)C4)OC3C)OC2C)CC(O)C1O` (configuration not stated), the T/C is, setting by setting: (dose: 0.63 mg/kg/injection, schedule: Q01DX010 (ip), vehicle: saline) 113 % of control; (dose: 1.25 mg/kg/injection, schedule: Q01DX010 (ip), vehicle: saline) 100 % of control; (dose: 2.5 mg/kg/injection, schedule: Q01DX010 (ip), vehicle: saline) 118 % of control; (dose: 5.0 mg/kg/injection, schedule: Q01DX010 (ip), vehicle: saline) 100 % of control.
Turning to `Cc1cc(=O)n(Cc2ccco2)c(=S)[nH]1`, the T/C runs as follows: (dose: 50.0 mg/kg/injection, schedule: Q01DX005 (ip), vehicle: saline with Tween-80) 98 % of control; (dose: 100.0 mg/kg/injection, schedule: Q01DX005 (ip), vehicle: saline with Tween-80) 93 % of control.
In the case of `CCNc1nc(Cl)nc(-c2cn(-c3ccccc3)c3ccccc23)n1`, the T/C (dose: 12.5 mg/kg/injection, schedule: Q01DX009 (ip), vehicle: Klucel (hydroxypropylcellulose) (HPC)) is 100 % of control; the T/C (dose: 25.0 mg/kg/injection, schedule: Q01DX009 (ip), vehicle: Klucel (hydroxypropylcellulose) (HPC)) is 91 % of control; the T/C (dose: 50.0 mg/kg/injection, schedule: Q01DX009 (ip), vehicle: Klucel (hydroxypropylcellulose) (HPC)) was 86 % of control; the T/C (dose: 100.0 mg/kg/injection, schedule: Q01DX009 (ip), vehicle: Klucel (hydroxypropylcellulose) (HPC)) was 91 % of control.
For the compound `CN(C)c1ccc([N+](=O)[O-])cn1`, the T/C by setting is: (dose: 12.5 mg/kg/injection, schedule: Q01DX009 (ip), vehicle: saline with Tween-80) 95 % of control; (dose: 25.0 mg/kg/injection, schedule: Q01DX009 (ip), vehicle: saline with Tween-80) 102 % of control; (dose: 50.0 mg/kg/injection, schedule: Q01DX009 (ip), vehicle: saline with Tween-80) 98 % of control; (dose: 100.0 mg/kg/injection, schedule: Q01DX009 (ip), vehicle: saline with Tween-80) 98 % of control.
For the compound `Nc1ccn(CC(=O)c2ccc(Cl)s2)c(=O)n1`, the T/C under setting [4] is 100 % of control; the T/C under setting [5] is 108 % of control; the T/C (dose: 200.0 mg/kg/injection, schedule: Q01DX009 (ip), vehicle: water) was 100 % of control.
